Experimental data reported in patent US5250283A, “Organic contrast agent analog and method of making same” (priority 1992, dated 1993).
Structures can show the parent of a compound that is named as a salt.

Legend:
[1] = Biliary excretion and bile flow after i.v. TFA-IOP (100 umol/kg) or IOP (100 in text, 104 umol/kg in tables) in rats; conditions: rat; for dose excreted at 10 min / dose excreted at 20 min / dose excreted at 0.5 h / dose excreted at 40 min / dose excreted at 50 min / dose excreted at 1 h / dose excreted at 70 min / dose excreted at 80 min / dose excreted at 1.5 h / dose excreted at 0 h: in vivo, iv, 100 umol/kg
Procedure: Tissues examined included liver, spleen, upper GI, lower GI, kidney, lung and heart. The length of each study was 90 minutes, during which time bile, urine and plasma samples were taken to monitor uptake and excretion. NMR relaxation rates for liver and plasma were also examined to note whether uptake of either compound might possible alter these parameters.

[2] = Urinary excretion after i.v. IOP or TFA-IOP in rats; type: in vivo; conditions: rat
[3] = i.v., period 10-0 min (pre-injection)

**Q.** Which results are given for `CCC(Cc1c(I)cc(I)c(NC(=O)C(F)(F)F)c1I)C(=O)O` (centres unmarked) [TFA-IOP, N-trifluoroacetyl-iopanoic acid]?
**A.** Bile flow per kg l.w. ([1]; i.v., 0-10 min): 3.127 ml/min per kg l.w.; Biliary excretion rate ([1]; i.v., 0-10 min): .123 µmol/min; Biliary excretion rate per kg b.w. ([1]; i.v., 0-10 min): .282 umoles/min per kg b.w.; Biliary excretion rate per kg l.w. ([1]; i.v., 0-10 min): 9.411 umoles/min per kg l.w.; umoles in bile sample ([1]; i.v., 0-10 min): 1.23 UMOLES; Bile flow ([1]; i.v., 10-20 min): .03675 mL/min; Bile flow per kg b.w. ([1]; i.v., 10-20 min): .08448 ml/min per kg b.w.; Bile flow per kg l.w. ([1]; i.v., 10-20 min): 2.823 ml/min per kg l.w.; Biliary excretion rate ([1]; i.v., 10-20 min): .212 µmol/min; Biliary excretion rate per kg b.w. ([1]; i.v., 10-20 min): .488 umoles/min per kg b.w.; Biliary excretion rate per kg l.w. ([1]; i.v., 10-20 min): 16.308 umoles/min per kg l.w.; umoles in bile sample ([1]; i.v., 10-20 min): 2.12 UMOLES; Bile flow ([1]; i.v., 20-30 min): .04050 mL/min; Bile flow per kg b.w. ([1]; i.v., 20-30 min): .09310 ml/min per kg b.w.; Bile flow per kg l.w. ([1]; i.v., 20-30 min): 3.111 ml/min per kg l.w.; Biliary excretion rate ([1]; i.v., 20-30 min): .261 µmol/min; Biliary excretion rate per kg b.w. ([1]; i.v., 20-30 min): .599 umoles/min per kg b.w.; Biliary excretion rate per kg l.w. ([1]; i.v., 20-30 min): 20.020 umoles/min per kg l.w.; umoles in bile sample ([1]; i.v., 20-30 min): 2.61 UMOLES; Bile flow ([1]; i.v., 30-40 min): .02992 mL/min; Bile flow per kg b.w. ([1]; i.v., 30-40 min): .06878 ml/min per kg b.w.; Bile flow per kg l.w. ([1]; i.v., 30-40 min): 2.298 ml/min per kg l.w.; Biliary excretion rate ([1]; i.v., 30-40 min): .233 µmol/min; Biliary excretion rate per kg b.w. ([1]; i.v., 30-40 min): .537 umoles/min per kg b.w.; Biliary excretion rate per kg l.w. ([1]; i.v., 30-40 min): 17.931 umoles/min per kg l.w.; umoles in bile sample ([1]; i.v., 30-40 min): 2.33 UMOLES; Bile flow ([1]; i.v., 40-50 min): .03047 mL/min; Bile flow per kg b.w. ([1]; i.v., 40-50 min): .07005 ml/min per kg b.w.; Bile flow per kg l.w. ([1]; i.v., 40-50 min): 2.34 ml/min per kg l.w.; Biliary excretion rate ([1]; i.v., 40-50 min): .233 µmol/min; Biliary excretion rate per kg b.w. ([1]; i.v., 40-50 min): .535 umoles/min per kg b.w.; Biliary excretion rate per kg l.w. ([1]; i.v., 40-50 min): 17.882 umoles/min per kg l.w.; umoles in bile sample ([1]; i.v., 40-50 min): 2.33 UMOLES; Bile flow ([1]; i.v., 50-60 min): .02817 mL/min; Bile flow per kg b.w. ([1]; i.v., 50-60 min): .06476 ml/min per kg b.w.; Bile flow per kg l.w. ([1]; i.v., 50-60 min): 2.164 ml/min per kg l.w.; Biliary excretion rate ([1]; i.v., 50-60 min): .238 µmol/min; Biliary excretion rate per kg b.w. ([1]; i.v., 50-60 min): .548 umoles/min per kg b.w.; Biliary excretion rate per kg l.w. ([1]; i.v., 50-60 min): 18.307 umoles/min per kg l.w.; umoles in bile sample ([1]; i.v., 50-60 min): 2.38 UMOLES; Bile flow ([1]; i.v., 60-70 min): .02721 mL/min; Bile flow per kg b.w. ([1]; i.v., 60-70 min): .06255 ml/min per kg b.w.; Bile flow per kg l.w. ([1]; i.v., 60-70 min): 2.09 ml/min per kg l.w.; Biliary excretion rate ([1]; i.v., 60-70 min): .146 µmol/min; Biliary excretion rate per kg b.w. ([1]; i.v., 60-70 min): .336 umoles/min per kg b.w.; Biliary excretion rate per kg l.w. ([1]; i.v., 60-70 min): 11.228 umoles/min per kg l.w.; umoles in bile sample ([1]; i.v., 60-70 min): 1.46 UMOLES; Bile flow ([1]; i.v., 70-80 min): .02653 mL/min; Bile flow per kg b.w. ([1]; i.v., 70-80 min): .06099 ml/min per kg b.w.; Bile flow per kg l.w. ([1]; i.v., 70-80 min): 2.038 ml/min per kg l.w.; Biliary excretion rate ([1]; i.v., 70-80 min): .141 µmol/min; Biliary excretion rate per kg b.w. ([1]; i.v., 70-80 min): .324 umoles/min per kg b.w.; Biliary excretion rate per kg l.w. ([1]; i.v., 70-80 min): 10.811 umoles/min per kg l.w.; umoles in bile sample ([1]; i.v., 70-80 min): 1.41 UMOLES; Bile flow ([1]; i.v., 80-90 min): .02586 mL/min; Bile flow per kg b.w. ([1]; i.v., 80-90 min): .05945 ml/min per kg b.w.; Bile flow per kg l.w. ([1]; i.v., 80-90 min): 1.986 ml/min per kg l.w.; Biliary excretion rate ([1]; i.v., 80-90 min): .121 µmol/min; Biliary excretion rate per kg b.w. ([1]; i.v., 80-90 min): .277 umoles/min per kg b.w.; Biliary excretion rate per kg l.w. ([1]; i.v., 80-90 min): 9.262 umoles/min per kg l.w.; umoles in bile sample ([1]; i.v., 80-90 min): 1.21 UMOLES; Bile flow [1, 3]: .02093 mL/min; Bile flow per kg b.w. [1, 3]: .04811 ml/min per kg b.w.; Bile flow per kg l.w. [1, 3]: 1.608 ml/min per kg l.w.; Biliary excretion rate [1, 3]: .013 µmol/min; Biliary excretion rate per kg b.w. [1, 3]: .031 umoles/min per kg b.w.; Biliary excretion rate per kg l.w. [1, 3]: 1.021 umoles/min per kg l.w.; umoles in bile sample [1, 3]: .13 UMOLES; umoles running total in bile ([1]; i.v., through 0-10 min): 1.36 UMOLES; umoles running total in bile ([1]; i.v., through 10-20 min): 3.48 UMOLES; umoles running total in bile ([1]; i.v., through 20-30 min): 6.09 UMOLES; umoles running total in bile ([1]; i.v., through 30-40 min): 8.42 UMOLES; umoles running total in bile ([1]; i.v., through 40-50 min): 10.75 UMOLES; umoles running total in bile ([1]; i.v., through 50-60 min): 13.13 UMOLES; umoles running total in bile ([1]; i.v., through 60-70 min): 14.60 UMOLES; umoles running total in bile ([1]; i.v., through 70-80 min): 16.00 UMOLES; umoles running total in bile ([1]; i.v., through 80-90 min): 17.21 UMOLES; umoles running total in bile ([1]; i.v., through period printed 10-0 min (pre-injection)): .13 UMOLES; rate of biliary excretion relative to IOP ([1]; i.v., vs IOP, FIG. 8): approximately twice; dose excreted at 10 min ([1]; Percentage of dose in bile sample, 0-10 min): 2.82%; dose excreted at 20 min ([1]; Percentage of dose in bile sample, 10-20 min): 4.88%; dose excreted at 0.5 h ([1]; Percentage of dose in bile sample, 20-30 min): 5.99%; dose excreted at 40 min ([1]; Percentage of dose in bile sample, 30-40 min): 5.37%; dose excreted at 50 min ([1]; Percentage of dose in bile sample, 40-50 min): 5.35%; dose excreted at 1 h ([1]; Percentage of dose in bile sample, 50-60 min): 5.48%; dose excreted at 70 min ([1]; Percentage of dose in bile sample, 60-70 min): 3.36%; dose excreted at 80 min ([1]; Percentage of dose in bile sample, 70-80 min): 3.24%; dose excreted at 1.5 h ([1]; Percentage of dose in bile sample, 80-90 min): 2.77%; dose excreted at 0 h ([1]; Percentage of dose in bile sample, period 10-0 min (pre-injection)): 0.31%; dose excreted at 10 min ([1]; Percentage of dose running total in bile, through 0-10 min): 3.12%; dose excreted at 20 min ([1]; Percentage of dose running total in bile, through 10-20 min): 8%; dose excreted at 0.5 h ([1]; Percentage of dose running total in bile, through 20-30 min): 14%; dose excreted at 40 min ([1]; Percentage of dose running total in bile, through 30-40 min): 19.4%; dose excreted at 50 min ([1]; Percentage of dose running total in bile, through 40-50 min): 24.7%; dose excreted at 1 h ([1]; Percentage of dose running total in bile, through 50-60 min): 30.2%; dose excreted at 70 min ([1]; Percentage of dose running total in bile, through 60-70 min): 33.6%; dose excreted at 80 min ([1]; Percentage of dose running total in bile, through 70-80 min): 36.8%; dose excreted at 1.5 h ([1]; Percentage of dose running total in bile, through 80-90 min): 39.6%; dose excreted at 0 h ([1]; Percentage of dose running total in bile, through period printed 10-0 min (pre-injection)): 0.31%; Urine concentration ([2]; 0-20 min): 0 µM; Urine concentration ([2]; 20-40 min): 0 µM
